# Laboratory results: patent US20070056052A1, “Methods of generating knock-out rodents” (priority 2001, published 2007)
# Entries after “also recorded” stand apart in the source; their conditions may differ.
# What was measured:
# [1] = system: SD male rats (germ line); assay: Visual phenodeviant screen of F1 pups from ENU-treated SD males; assay type: in vivo, rat
# Protocol: (§1) ENU mutagenesis rat protocol: Pathogen-free inbred Wistar Furth (WF), inbred Fischer-344 (F344) and outbred Sprague Dawley (SD) male and female rats were obtained from Harlan Sprague Dawley, Inc. (Indianapolis, Ind.). All rats were given Teklad Lab Blox chow (Harlan Teklad, Madison, Wis.), acidified water ad libitum, and were housed under a 12-h light/12-h dark cycle. After a one week acclimation period, nine-week-old male rats were administered ENU as a single intraperitoneal injection; for a split dose, rats were injected with ENU once at 9 weeks of age and again at 10 weeks of age. One gram of ENU (Sigma) was dissolved in 10 mls of 95% ethanol and then diluted with 90 mls of phosphate citrate buffer prior to injection. All injections of ENU were given in the morning hours. To characterize the effect of ENU treatment on fertility in the various rat strains, mutagenized males were paired with untreated females of the same strain for consecutive 2-3 week periods, beginning 3-5 weeks after the first ENU treatment and continuing a minimum of 26 weeks post-ENU. We observed female rats for vaginal plugs, gross pregnancy and date of birth/size of litters. For our phenotypic mutant (phenodeviant) rat screening experiments, ENU-treated SD male rats were bred with SD female rats and all F1 pups were visually checked for gross abnormalities in physical development or behavior as compared to littermates at least twice prior to weaning at approximately 21 days of age. A subset of the F1 phenodeviant rats identified was bred to SD rats to determine inheritance of the observed phenotypic mutation. Several of the heritable phenodeviant rat lines are currently being maintained and backcrossed to eliminate residual ENU-induced genetic changes not associated with the phenotypic mutation.
# Phenodeviant rat production: Multiple ENU dosing protocols in the SD rat strain determine their germline mutagenic potential by breeding ENU-treated SD males to females of the same strain to produce F1 offspring. These pups were examined for readily observable physical or behavioral abnormalities. Phenodeviants were identified at all doses listed in Table 2 with a variety of abnormalities observed. Phenodeviant F1 pups were born at various times between 6-52 weeks post-ENU treatment of male founders. The most frequent abnormalities visually identified were those of the eyes, tail, and growth. […] Selected phenodeviant rat F1 pups were maintained and bred to determine the heritability of the physical abnormalities (Table 3). […] These abnormalities were diverse (Table 4).
# [2] = system: male rats; assay: Toxicity and lifespan observation of ENU-treated male rats; assay type: in vivo, rat
# Protocol: as §1, with “For our phenotypic mutant (phenodeviant) rat screening experiments, ENU-treated SD male rats were bred with SD female rats and all F1 pups were visually checked for gross abnormalities in physical development or behavior as compared to littermates at least twice prior to weaning at approximately 21 days of age. A subset of the F1 phenodeviant rats identified was bred to SD rats to determine inheritance of the observed phenotypic mutation. Several of the heritable phenodeviant rat lines are currently being maintained and backcrossed to eliminate residual ENU-induced genetic changes not associated with the phenotypic mutation.” left out
smiles,measurement,setting,value
"CCN(N=O)C(N)=O [ENU, N-ethyl-N-nitrosourea]","F1 phenodeviant rats, abnormality observed: behavioral",[1]; single dose 100 mg/kg,1
same,"F1 phenodeviant rats, abnormality observed: craniofacial",[1]; single dose 100 mg/kg,0
same,"F1 phenodeviant rats, abnormality observed: ear",[1]; single dose 100 mg/kg,1
same,"F1 phenodeviant rats, abnormality observed: eye",[1]; single dose 100 mg/kg,5
same,"F1 phenodeviant rats, abnormality observed: gonad",[1]; single dose 100 mg/kg,1
same,"F1 phenodeviant rats, abnormality observed: growth (<50% littermates)",[1]; single dose 100 mg/kg,0
same,"F1 phenodeviant rats, abnormality observed: limb/digit",[1]; single dose 100 mg/kg,0
same,"F1 phenodeviant rats, abnormality observed: multiple",[1]; single dose 100 mg/kg,0
same,"F1 phenodeviant rats, abnormality observed: skin/hair",[1]; single dose 100 mg/kg,0
same,"F1 phenodeviant rats, abnormality observed: tail",[1]; single dose 100 mg/kg,0
same,total number of phenodeviants,"[1]; single dose 100 mg/kg, 1251 F1 rats examined",8
same,"F1 phenodeviant rats, abnormality observed: behavioral",[1]; single dose 120 mg/kg,0
same,"F1 phenodeviant rats, abnormality observed: craniofacial",[1]; single dose 120 mg/kg,0
same,"F1 phenodeviant rats, abnormality observed: ear",[1]; single dose 120 mg/kg,1
same,"F1 phenodeviant rats, abnormality observed: eye",[1]; single dose 120 mg/kg,1
same,"F1 phenodeviant rats, abnormality observed: gonad",[1]; single dose 120 mg/kg,0
same,"F1 phenodeviant rats, abnormality observed: growth (<50% littermates)",[1]; single dose 120 mg/kg,0
same,"F1 phenodeviant rats, abnormality observed: limb/digit",[1]; single dose 120 mg/kg,0
same,"F1 phenodeviant rats, abnormality observed: multiple",[1]; single dose 120 mg/kg,0
same,"F1 phenodeviant rats, abnormality observed: skin/hair",[1]; single dose 120 mg/kg,0
same,"F1 phenodeviant rats, abnormality observed: tail",[1]; single dose 120 mg/kg,1
same,total number of phenodeviants,"[1]; single dose 120 mg/kg, 419 F1 rats examined",3
same,"F1 phenodeviant rats, abnormality observed: behavioral",[1]; split dose 2 × 50 mg/kg,0
same,"F1 phenodeviant rats, abnormality observed: craniofacial",[1]; split dose 2 × 50 mg/kg,0
same,"F1 phenodeviant rats, abnormality observed: ear",[1]; split dose 2 × 50 mg/kg,0
same,"F1 phenodeviant rats, abnormality observed: eye",[1]; split dose 2 × 50 mg/kg,4
same,"F1 phenodeviant rats, abnormality observed: gonad",[1]; split dose 2 × 50 mg/kg,0
same,"F1 phenodeviant rats, abnormality observed: growth (<50% littermates)",[1]; split dose 2 × 50 mg/kg,0
same,"F1 phenodeviant rats, abnormality observed: limb/digit",[1]; split dose 2 × 50 mg/kg,0
same,"F1 phenodeviant rats, abnormality observed: multiple",[1]; split dose 2 × 50 mg/kg,0
same,"F1 phenodeviant rats, abnormality observed: skin/hair",[1]; split dose 2 × 50 mg/kg,0
same,"F1 phenodeviant rats, abnormality observed: tail",[1]; split dose 2 × 50 mg/kg,3
same,total number of phenodeviants,"[1]; split dose 2 × 50 mg/kg, 782 F1 rats examined",7
same,"F1 phenodeviant rats, abnormality observed: behavioral",[1]; split dose 2 × 60 mg/kg,0
same,"F1 phenodeviant rats, abnormality observed: craniofacial",[1]; split dose 2 × 60 mg/kg,2
same,"F1 phenodeviant rats, abnormality observed: ear",[1]; split dose 2 × 60 mg/kg,0
same,"F1 phenodeviant rats, abnormality observed: eye",[1]; split dose 2 × 60 mg/kg,37
same,"F1 phenodeviant rats, abnormality observed: gonad",[1]; split dose 2 × 60 mg/kg,0
same,"F1 phenodeviant rats, abnormality observed: growth (<50% littermates)",[1]; split dose 2 × 60 mg/kg,10
same,"F1 phenodeviant rats, abnormality observed: limb/digit",[1]; split dose 2 × 60 mg/kg,5
same,"F1 phenodeviant rats, abnormality observed: multiple",[1]; split dose 2 × 60 mg/kg,6
same,"F1 phenodeviant rats, abnormality observed: skin/hair",[1]; split dose 2 × 60 mg/kg,6
same,"F1 phenodeviant rats, abnormality observed: tail",[1]; split dose 2 × 60 mg/kg,13
same,total number of phenodeviants,"[1]; split dose 2 × 60 mg/kg, 5163 F1 rats examined",79
same,lifespan and tumors of fertile mutagenized male rats,[2]; about one year post-ENU,"shortened, with many developing skin and kidney tumors and lymphomas at approximately one year of age"
same,acute toxicity to male rats,"[2]; all doses of Table 1, SD, F344, WF",none of the ENU doses used were toxic to the male rats; also recorded: None of the doses listed in Table 1 were acutely toxic
